Test results published in patent US6740635B2, “Antiviral linear polymers” (Biomolecular Research Institute Ltd., priority 1996, dated 2004).
≈ marks a conversion by molar mass, not a printed value. Like-named read-outs stand apart in the source and are kept apart here.

Key:
[1] = tested on: HSV-2; experiment: HSV-2 Plaque Reduction; details: Human alphaherpesvirus 2, HFF, in Homo sapiens, read-out: EC50, HSV-2 Plaque Reduction
[2] = tested on: HSV-1; experiment: HSV-1 Plaque Reduction; details: Human alphaherpesvirus 1, HFF, in Homo sapiens, read-out: EC50, HSV-1 Plaque Reduction
[3] = tested on: HSV-1; experiment: HSV-1 CPE Inhibition; details: Human alphaherpesvirus 1, HFF, in Homo sapiens, read-out: EC50, HSV-1 CPE Inhibition
[4] = tested on: HSV-2; experiment: HSV-2 CPE Inhibition; details: Human alphaherpesvirus 2, HFF, in Homo sapiens, read-out: EC50, HSV-2 CPE Inhibition
[5] = tested on: VZV; experiment: VZV viral count or plaque reduction; format: cell-based, Varicella Zoster Virus; details: Human alphaherpesvirus 3
[6] = tested on: CMV; experiment: microbe, parasite or virus in culture; format: cell-based; details: Human betaherpesvirus 5, read-out: CPE-inhibition EC50
[7] = tested on: RSV; Long; experiment: RSV Long CPE-inhibition; format: cell-based, Respiratory Syncytial Virus
[8] = tested on: RSV; A2; experiment: RSV A2 Neutral Red cell count; format: cell-based; details: human respiratory syncytial virus, read-out: NR = Neutral Red cell count EC50
[9] = tested on: Flu B; experiment: microbe, parasite or virus in culture; format: cell-based; details: Influenza B virus, read-out: NR = Neutral Red cell count EC50
[10] = tested on: RSV; A2; experiment: RSV A2 viral count or plaque reduction; format: cell-based; details: human respiratory syncytial virus, Table 5
[11] = in vitro
[12] = tested on: RSV; A2; experiment: RSV A2 virus yield
[13] = tested on: uninfected cells
[14] = tested on: HIV 1 IIIB; experiment: microbe, parasite or virus in culture; format: cell-based, Human Immunodeficiency Virus type 1; details: Human immunodeficiency virus 1, IIIB
[15] = tested on: Cytomegalovirus (Davis strain); experiment: HCMV CPE Inhibition; details: Human betaherpesvirus 5, HFF, in Homo sapiens, read-out: EC50, HCMV CPE Inhibition
[16] = in vitro; details: mouse
[17] = tested on: Cytomegalovirus (Davis strain); experiment: HCMV Plaque Reduction; details: Human betaherpesvirus 5, HFF, in Homo sapiens, read-out: EC50, HCMV Plaque Reduction
[18] = tested on: MCMV; experiment: MCMV Plaque Reduction; details: Mus musculus, MEF, read-out: EC50, MCMV Plaque Reduction

Compound `Nc1nc2c(ncn2COCCO)c(=O)[nH]1` [Acyclovir] has an EC50 [1] of 0.6 µg/mL (≈ 2.66 µM), an EC50 [2] of 0.3 µg/mL (≈ 1.33 µM) and an EC50 [3] of 0.06 µg/mL (≈ 0.266 µM). For the same compound, the EC50 [4] was 0.2 µg/mL (≈ 0.888 µM) and the EC50 [5] was 0.5 µg/mL (≈ 2.22 µM).
In the case of `NC(=O)c1ncn([C@@H]2O[C@H](CO)[C@@H](O)[C@H]2O)n1` [Ribavirin], the EC50 [6] is reported as 25 µg/mL (≈ 102 µM), the “CPE-inhibition EC50” value [7] is reported as 7 µg/mL and the EC50 ([7]; human respiratory syncytial virus) is reported as 10 µg/mL (≈ 40.9 µM). The EC50 [8] was 1 µg/mL (≈ 4.09 µM), the EC50 [9] was 1.8 µg/mL (≈ 7.37 µM) and the EC50 [10] was 2 µg/mL (≈ 8.19 µM). For the same compound, the CC50 [11] was over 100 µg/mL, the CC50 ([11]; CPE-inhibition (CC50), parallel to CMV CPE-inhibition, Table 6) was 118 µg/mL and the CC50 ([11]; CPE-inhibition (CC50), parallel to RSV A2 CPE-inhibition) was over 1000 µg/mL. For the same compound, the CC50 ([11]; NR = Neutral Red cell count (CC50)) was 40 µg/mL, the CC50 ([11]; Viral count or Plaque Reduction (CC50), parallel to RSV A2 viral count, Table 5) was over 1000 µg/mL and the CC50 ([11]; Virus Yield (CC50), parallel to RSV A2 virus yield test) was 71 µg/mL. For the same compound, the “Virus Yield SI = CC50/EC90” value ([12]; RSV, A2) was 12, the EC50 ([12]; human respiratory syncytial virus, read-out: Virus Yield EC50) was 6 µg/mL (≈ 24.6 µM) and the EC90 ([12]; human respiratory syncytial virus, read-out: Virus Yield EC90) was 6 µg/mL (≈ 24.6 µM).
For “poly-L-lysyl [(8-octanamido)-5-acetamido-3,5-dideoxy-2-thio-D-glycero-α-D-galacto-2-nonulopyranosidoic acid]n [BRI 6150]”, the “Virus Yield (CC50)” value [13] was over 1000 µg/mL.
`Cc1cn([C@H]2C[C@H](N=[N+]=[N-])[C@@H](CO)O2)c(=O)[nH]c1=O` [AZT, Zidovudine] showed a CC50 ([11]; CC50, parallel to HIV 1 IIIB test, Table 1, standards) of 1.17 µg/mL, a CC50 ([11]; CPE-inhibition (CC50), parallel to HIV-1 IIIB test, Table 5, Concentrations μM) of 4.38 µM and an EC50 [14] of 0.0001 µg/mL. It also gave an EC50 ([14]; read-out: CPE-inhibition EC50) of 0.37 nM.
`Nc1nc(O)c2ncn(COC(CO)CO)c2n1` [Ganciclovir] showed an EC50 [15] of 0.1 µg/mL (≈ 0.392 µM), a CC50 [16] of 0.5 µg/mL (≈ 1.96 µM) and an EC50 [17] of 0.2 µg/mL (≈ 0.784 µM). It also gave an EC50 [18] of 0.6 µg/mL (≈ 2.35 µM).
